According to patent US5506354A, “Imidazolylpiperazinyl steroids” (The Upjohn Company, priority 1992, dated 1996):
Where a name gives a salt, the structure may show the parent alone.

Columns and labels:
arachidonic acid = test: Arachidonic Acid Antagonism Assay (AAAA), LD50 of sodium arachidonate; assay type: in vivo, Charles River male CF-1 mice; details: for arachidonic acid antagonism (activity in words): test compound IV 15 min before sodium arachidonate, LD50 outside 95% confidence interval of control
Description: Since these metabolites contribute to the pathological problems associated with stroke, spinal trauma and head injury, compounds which antagonize arachidonic acid are useful in treating stroke, spinal trauma and head injury.
While not necessary to determine arachidonic acid antagonism, the above assay has been modified as follows: Charles River male CF-1 mice weighing 18-22 g are treated IV with the test compound dissolved in 1.0% Tween-80 and 0.1% hydrochloric acid in distilled water, 0.2 ml total volume. Fifteen minutes later sodium arachidonate (90% pure) in physiological (normal) saline is injected into the tail vein. The LD50 is measured using the Spearman-Karber method with a log dose interval of 0.05 (N=6). Compounds which elevate the LD50 outside of the 95% confidence interval of the control LD50 are considered to be "active".

interleukin-1 = test: Inhibition of interleukin-1 induced T cell proliferation; assay type: cell-based; details: for inhibition of interleukin 1 (activity in words): active = greater than 30% at 10^-6 M
From the text: The inhibition of interleukin-1 induced T cell proliferation assay, Proc. Nat. […] Since people with arthritis make excess interleukin 1, compounds which inhibit the activity of interleukin 1 are useful in the treatment of arthritis. According to this procedure compounds which inhibit the activity of interleukin 1 greater that 30% at 10^-6 M are considered to be "active".

angiogenesis = test: Chick embryo assay of Folkman (inhibition of angiogenesis / tumor growth); assay type: in vivo; details: 50 μg/10 μl in the presence of heparin
Description: According to this procedure compounds which are considered to be "active" (i.e. antiangiogenic) give an avascular zone of 4 mm or greater in some embryos when tested at 50 μg/10 μl in the presence of 50 μg/10μ of heparin.

MDA formation = test: Malonyldialdehyde (MDA) Formation Assay (rat brain synaptosomes); assay type: biochemical; details: 10 min at 37°, pH 7.0; active = 50% or more at 200 μM or less
Description: Since lipid peroxidation is involved in the pathophysiology of center nervous system trauma, compounds which inhibit MDA formation are useful in treating the conditions listed below.
While not necessary to determine MDA formation, the above assays have been modified as follows: rat brain synaptosomes are prepared as described in the Example about the conjugated diene assay, except that the final wash of the synaptosomes and final suspension are in physiological (normal) saline in which the pH has been adjusted to 7.0. The synaptosomes are incubated for 10 min at 37° in physiological (normal) saline pH 7.0 (total volume=100 ul) containing; 10 ul synaptosomal suspension, 10% DMSO plus or minus drug, 150 uM Fe^+++ and 50 uM Fe++. The incubation is started by the rapid addition of iron to the otherwise complete reaction. The iron solutions are prepared fresh as ferric chloride and ferrous ammonium sulfate in argon-purged water. Following the 10 min incubation, the reaction is stopped by the addition of 500 ul ice-cold 12% trichloroacetic acid prepared in 0.5N hydrochloric acid. Water (300 ul) is then added along with 100 ul of freshly prepared thiobarbituric acid (3.3% in 0.5N sodium hydroxide) and 10 ul of 5 mM desferrioxamine. The sample is then heated in a boiling water bath for 20 minutes. The samples are cooled and centrifuged for 15 minutes at 1500×g and the absorbence of the supernatant fraction is read at 532 nm. The % inhibition of MDA formation is calculated by dividing the absorbance of sample containing drug by the absorbence of samples incubated without drug. Reaction blanks are samples incubated in the absence of iron. A compound that inhibits MDA formation by 50% or more at a concentration of 200 μM or less is considered "active".

Row | SMILES | arachidonic acid antagonism (activity in words) (arachidonic acid) | inhibition of interleukin 1 (activity in words) (interleukin-1) | further results
1 | C[C@H]1C[C@@H]2[C@H]([C@@H](O)C[C@@]3(C)[C@H]2CC[C@]3(O)C(=O)CN2CCN(c3ccccn3)CC2)[C@@]2(C)C=CC(=O)C=C12 [Example 21, 11β,17α-dihydroxy-6α-methyl-21-[4-(2-pyridinyl)-1-piperazinyl]pregna-1,4-diene-3,20-dione] | demonstrate arachidonic acid antagonism | demonstrate inhibition of interleukin 1 | % of Embryos with 4 mm or Greater Avascular Zone (angiogenesis): 91%; inhibition of angiogenesis (activity in words) (angiogenesis): demonstrate inhibition of angiogenesis
2 | CN(CCN(C)c1ccccn1)CC(=O)[C@@]1(O)CC[C@H]2[C@@H]3CCC4=CC(=O)CC[C@]4(C)C3=CC[C@@]21C [Example 24, 17α-hydroxy-21-[methyl[2-(methyl-2-pyridinylamino)ethyl]-aminopregna-4,9(11)-diene-3,20-dione dihydrochloride] | demonstrate arachidonic acid antagonism |  | inhibition of angiogenesis (activity in words) (angiogenesis): demonstrate inhibition of angiogenesis
3 | COc1ccc(CCN(CC(=O)[C@@]2(O)CC[C@H]3[C@@H]4CCC5=CC(=O)CC[C@]5(C)C4=CC[C@@]32C)Cc2cc(OC)c(OC)c(OC)c2)cc1OC [Example 37, 17α-hydroxy-21-[[2-(3,4-dimethoxy-phenyl)ethyl]-[3,4,5-trimethoxyphenyl)methyl]amino]pregna-4,9(11)diene-3,20-dione hydrochloride] |  | demonstrate inhibition of interleukin 1 | inhibition of angiogenesis (activity in words) (angiogenesis): demonstrate inhibition of angiogenesis
4 | COc1ccccc1N1CCN(CC(=O)[C@@]2(O)CC[C@H]3[C@@H]4CCC5=CC(=O)CC[C@]5(C)[C@H]4CC[C@@]32C)CC1.Cl.Cl.O [Example 41, 17α-hydroxy-21-[4-(2-methoxyphenyl)-1-piperazinyl]pregn-4-ene-3,20-dione dihydrochloride hydrate] | demonstrate arachidonic acid antagonism |  | % of Embryos with 4 mm or Greater Avascular Zone (angiogenesis): 80%
5 | CCN(CC)c1cc(N2CCN(CC(=O)[C@@]3(O)CC[C@H]4[C@@H]5CCC6=CC(=O)CC[C@]6(C)[C@H]5CC[C@@]43C)CC2)nc(N(CC)CC)n1 [Example 53, 21-[4-[2,6-bis(diethylamino)4-pyrimidinyl]-1-piperazinyl]-17α-hydroxypregn-4-ene-3,20-dione] | demonstrate arachidonic acid antagonism |  | 
6 | C[C@]12CCC(=O)C=C1CC[C@@H]1C2=CC[C@@]2(C)[C@H]1CC[C@]2(O)C(=O)CN1CCN(Cc2ccccn2)CC1 [Example 54, 17α-hydroxy-21-[4-(2-pyridinylmethyl)-1-piperazinyl]-pregna-4,9(11)-diene-3,20-dione (E)-2-butenedioate 1:1 salt] | demonstrate arachidonic acid antagonism |  | 
7 | CCN(CC)c1cc(N2CCN(C(=O)[C@@]3(O)CC[C@H]4[C@@H]5CCC6=CC(=O)CC[C@]6(C)[C@H]5CC[C@@]43C)CC2)nc(N(CC)CC)n1 [Example 57] | demonstrate arachidonic acid antagonism |  | % of Control LD50 100 mg/kg (arachidonic acid; 100 mg/kg, test compound IV): 124%
8 | C=CCNc1nc(NCC=C)nc(N2CCN(CC(=O)[C@@]3(O)CC[C@H]4[C@@H]5CCC6=CC(=O)CC[C@]6(C)C5=CC[C@@]43C)CC2)n1.Cl.Cl.O [Example 60, 17α-hydroxy-21-[4-[4,6-bis(2-propenylamino)-1,3,5-triazin-2-yl]-1-piperazinyl]pregna-4,9(11)-diene-3,20-dione dihydrochloride hydrate] | demonstrate arachidonic acid antagonism |  | 
9 | C[C@]12C=CC(=O)C=C1CC[C@@H]1C2=CC[C@@]2(C)[C@H]1CC[C@]2(O)C(=O)CN1CCN(c2cc(N3CCCC3)nc(N3CCCC3)n2)CC1.Cl.Cl.O [Example 74, 17α-hydroxy-21-[4-[2,6-di-(1-pyrrolidinyl)-4-pyrimidinyl]-1-piperazinyl] pregna-1,4,9(11)-triene-3,20-dione dihydrochloride hydrate] | demonstrate arachidonic acid antagonism |  | 
10 | CCN(CC)c1cc(N2CCN(CC(=O)[C@@]3(O)CC[C@H]4[C@@H]5CCC6=CC(=O)C=C[C@]6(C)C5=CC[C@@]43C)CC2)nc(N(CC)CC)n1.Cl.Cl.O [Example 75, 21-[4-[2,6-bis(diethylamino)4-pyrimidinyl]-1-piperazinyl]-17α-hydroxypregna-1,4,9(11)-triene-3,20-dione dihydrochloride hydrate] | demonstrate arachidonic acid antagonism |  | 
11 | C[C@]12CCC(=O)C=C1CC[C@@H]1C2=CC[C@@]2(C)[C@H]1CC[C@]2(O)C(=O)CN1CCOCC1 [Example 93, 17α-hydroxy-21-(4-morpholino)-pregna4,9(11)-diene-3,20-dione (E)-2-butanedioate (1:1) salt] | demonstrate arachidonic acid antagonism |  | 
12 | C[C@]12CC(=O)[C@H]3[C@@H](CCC4=CC(=O)CC[C@@]43C)[C@@H]1CC[C@@H]2C(=O)CN1CCN(c2cc(N3CCCC3)nc(N3CCCC3)n2)CC1.Cl.Cl [Example 94, 21-[4-[2,6-bis(1-pyrrolidinyl)-4-pyrimidinyl]-1-piperazinyl]pregn-4-ene-3,11,20-trione dihydrochloride] |  | demonstrate inhibition of interleukin 1 | 
13 | CCN(CC)c1ccc(N(C)C)c(N2CCN(CC(=O)[C@@]3(O)CC[C@H]4[C@@H]5CCC6=CC(=O)CC[C@]6(C)C5=CC[C@@]43C)CC2)n1.Cl.Cl [Example 96, 21-[4-[6-(diethylamino)-3-(dimethylamino)-2-pyridinyl]-1-piperazinyl]-17α-hydroxypregna-4,9(11)-diene-3,20-dione dihydrochloride] |  | demonstrate inhibition of interleukin 1 | % Inhibition at 10^-6 M (interleukin-1; interleukin 1, 10^-6 M): 77%
14 | C[C@]12CC[C@H]3[C@@H](CCC4=CC(=O)C=C[C@@]43C)[C@@H]1CC[C@@H]2C(=O)CN1CCN(c2cc(N3CCCC3)nc(N3CCCC3)n2)CC1.Cl.Cl [Example 97, 21-[4-[2,6-di-(1-pyrrolidinyl)-4-pyrimidinyl]-1-piperazinyl]-pregna-1,4-diene-3,20-dione dihydrochloride] |  | demonstrate inhibition of interleukin 1 | inhibition of angiogenesis (activity in words) (angiogenesis): demonstrate inhibition of angiogenesis
15 | CN1CCN(CC(=O)[C@@]2(O)CC[C@H]3[C@@H]4CCC5=CC(=O)CC[C@]5(C)C4=CC[C@@]32C)CC1 [Example 101, 17α-hydroxy-21-(4-methyl-1-piperazinyl)pregna-4,9(11)-diene-3,20-dione] |  | demonstrate inhibition of interleukin 1 | 
16 | CC(CN1CCN(c2cc(N3CCCC3)nc(N3CCCC3)n2)CC1)[C@H]1CC[C@H]2[C@@H]3CCC4=CC(=O)CC[C@]4(C)[C@H]3CC[C@]12C.Cl (stereo partly drawn) [Example 107, 20-Methyl-21-[4-(2,6-bis(1-pyrrolidinyl)-4-pyrimidinyl)-1-piperazinyl]pregna-4-ene-3-one hydrochloride] |  |  | inhibition of MDA formation (activity in words) (MDA formation): demonstrate such activity
17 | C[C@@]12C(=CC(=O)C[C@@H]1C#N)CC[C@@H]1C2=CC[C@]2(C)[C@@H](CCN3CCN(c4cc(N5CCCC5)nc(N5CCCC5)n4)CC3)CC[C@@H]12.Cl.Cl.Cl.O [Example 110, 21-[4-(2,6-Bis(1-pyrrolidinyl)4-pyrimidinyl)-1-piperazinyl]-1α-cyanopregna-4,9(11)-dien-3-one-trihydrochloride, hydrate] |  |  | inhibition of MDA formation (activity in words) (MDA formation): demonstrate such activity
18 | C[C@H]1C[C@H]2[C@@H]3C[C@H](F)C4=CC(=O)CC[C@]4(C)C3=CC[C@]2(C)[C@@]1(O)C(=O)CN1CCN(c2cc(N3CCCC3)nc(N3CCCC3)n2)CC1 [Example 118, 6αa-Fluoro-17α-hydroxy-16β-methyl-21-[4-[2,6-bis(1-pyrrolidinyl)-4-pyrimidinyl]-1-piperazinyl]-pregna-4,9(11)-diene-3,20-dione dihydrochloride] |  |  | inhibition of MDA formation (activity in words) (MDA formation): demonstrate such activity
